Data: ChEMBL document CHEMBL1130635, “4-Phenyl-4-oxo-butanoic acid derivatives inhibitors of kynurenine 3-hydroxylase” (Bioorg Med Chem Lett, 1998)

How the values were obtained:
[1] = target: Kynurenine/alpha-aminoadipate aminotransferase, mitochondrial (Rattus norvegicus) (UniProt Q64602); experiment: Compound was evaluated for inhibition of rat liver KAT at 100 uM concentration
[2] = target: T1, Kynureninase (Rattus norvegicus) (UniProt P70712); experiment: Compound was evaluated for inhibition of rat liver KYN ase at 100 uM concentration
T1 sequence (whole entry): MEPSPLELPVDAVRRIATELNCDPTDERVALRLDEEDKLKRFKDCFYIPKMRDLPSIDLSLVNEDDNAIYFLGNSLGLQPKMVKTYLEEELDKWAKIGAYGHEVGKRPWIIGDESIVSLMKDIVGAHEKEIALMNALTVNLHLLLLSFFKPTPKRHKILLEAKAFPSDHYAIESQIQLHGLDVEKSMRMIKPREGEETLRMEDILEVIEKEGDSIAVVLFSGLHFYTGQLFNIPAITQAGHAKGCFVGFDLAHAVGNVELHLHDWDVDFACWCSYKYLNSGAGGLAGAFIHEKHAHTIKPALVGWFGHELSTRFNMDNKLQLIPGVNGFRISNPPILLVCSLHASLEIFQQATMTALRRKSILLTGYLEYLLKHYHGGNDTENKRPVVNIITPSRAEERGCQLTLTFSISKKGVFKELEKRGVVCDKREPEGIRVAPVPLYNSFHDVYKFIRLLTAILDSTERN

FMO [3] = target: T2, FMO (Mus musculus, UniProt Q64133+Q8BW75); experiment: Compound was evaluated for inhibition of FMO at 100 uM concentration; assay type: protein assay
T2 sequence (Q8BW75 whole entry): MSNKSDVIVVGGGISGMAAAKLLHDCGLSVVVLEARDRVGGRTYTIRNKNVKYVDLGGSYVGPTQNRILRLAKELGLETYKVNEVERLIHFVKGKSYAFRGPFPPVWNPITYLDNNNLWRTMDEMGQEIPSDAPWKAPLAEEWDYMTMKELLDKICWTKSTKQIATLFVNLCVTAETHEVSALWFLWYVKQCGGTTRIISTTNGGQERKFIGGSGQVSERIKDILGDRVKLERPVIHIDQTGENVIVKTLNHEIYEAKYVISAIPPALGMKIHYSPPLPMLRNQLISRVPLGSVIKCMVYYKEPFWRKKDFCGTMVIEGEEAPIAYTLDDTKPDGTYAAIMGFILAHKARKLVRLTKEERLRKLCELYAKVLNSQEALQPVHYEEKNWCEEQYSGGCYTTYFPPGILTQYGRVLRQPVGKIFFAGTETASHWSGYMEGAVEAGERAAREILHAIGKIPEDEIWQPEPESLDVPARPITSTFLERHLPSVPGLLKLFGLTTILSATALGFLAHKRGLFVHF
T2 sequence (Q64133 whole entry): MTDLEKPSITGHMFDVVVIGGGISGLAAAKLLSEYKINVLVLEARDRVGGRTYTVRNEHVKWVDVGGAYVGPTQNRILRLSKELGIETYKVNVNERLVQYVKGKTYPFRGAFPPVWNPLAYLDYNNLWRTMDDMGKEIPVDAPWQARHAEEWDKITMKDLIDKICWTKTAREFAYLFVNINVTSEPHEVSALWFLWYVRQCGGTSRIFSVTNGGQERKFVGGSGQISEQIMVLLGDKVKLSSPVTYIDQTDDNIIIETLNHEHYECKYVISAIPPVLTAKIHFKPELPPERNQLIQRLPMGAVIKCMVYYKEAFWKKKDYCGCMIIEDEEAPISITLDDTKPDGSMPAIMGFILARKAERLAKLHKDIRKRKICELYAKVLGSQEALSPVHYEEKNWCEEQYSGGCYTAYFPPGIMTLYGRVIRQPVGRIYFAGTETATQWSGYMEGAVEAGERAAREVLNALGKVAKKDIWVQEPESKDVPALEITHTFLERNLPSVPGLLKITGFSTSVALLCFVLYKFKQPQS

Pseudomonas fluorescens [4] = experiment: Compound was evaluated for inhibition of PHBH at 100 uM concentration
[5] = target: Kynurenine 3-monooxygenase (Rattus norvegicus) (UniProt O88867); experiment: Inhibition of rat liver KYN 3-OHase at 100 uM concentration
[6] = target: T3, Kynurenine 3-monooxygenase (Rattus norvegicus, UniProt O88867); experiment: Inhibition of rat liver KYN 3-OHase.
[7] = target: T3, Kynurenine 3-monooxygenase; experiment: Inhibition of rat brain KYN 3-OHase.
[8] = target: T3, Kynurenine 3-monooxygenase; experiment: Compound was evaluated for the inhibition of rat liver KYN 3-OHase
[9] = target: T1, Kynureninase (Rattus norvegicus); experiment: Compound was evaluated for inhibition of rat liver KYN ase at 100 uM
FMO [10] = target: T2, FMO; experiment: Compound was evaluated for inhibition of FMO. at 100 uM; assay type: protein assay
[11] = target: Kynurenine/alpha-aminoadipate aminotransferase, mitochondrial (Rattus norvegicus) (UniProt Q64602); experiment: Compound was evaluated for inhibition of rat liver KAT at 100 uM
Pseudomonas fluorescens [12] = experiment: Compound was evaluated for inhibition of PHBH. at 100 uM
[13] = target: Kynurenine/alpha-aminoadipate aminotransferase, mitochondrial (Rattus norvegicus) (UniProt Q64602); experiment: Compound was evaluated for inhibition of rat liver KAT at 100 uM concentration.

Kynurenine/alpha-aminoadipate aminotransferase, mitochondrial (Rattus norvegicus), sequence (Q64602 30-425 limits assumed): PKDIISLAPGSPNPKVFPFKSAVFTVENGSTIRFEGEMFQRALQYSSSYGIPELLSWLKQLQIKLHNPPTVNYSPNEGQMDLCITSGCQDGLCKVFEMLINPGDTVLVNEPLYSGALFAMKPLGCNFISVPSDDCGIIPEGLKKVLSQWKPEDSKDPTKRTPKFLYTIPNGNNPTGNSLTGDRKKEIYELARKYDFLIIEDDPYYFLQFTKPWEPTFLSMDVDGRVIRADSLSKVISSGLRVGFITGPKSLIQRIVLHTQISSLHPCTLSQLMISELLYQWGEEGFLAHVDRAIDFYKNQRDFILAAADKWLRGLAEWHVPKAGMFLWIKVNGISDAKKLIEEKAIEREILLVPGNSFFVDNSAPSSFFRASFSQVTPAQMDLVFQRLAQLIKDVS
T3 sequence (O88867 whole entry): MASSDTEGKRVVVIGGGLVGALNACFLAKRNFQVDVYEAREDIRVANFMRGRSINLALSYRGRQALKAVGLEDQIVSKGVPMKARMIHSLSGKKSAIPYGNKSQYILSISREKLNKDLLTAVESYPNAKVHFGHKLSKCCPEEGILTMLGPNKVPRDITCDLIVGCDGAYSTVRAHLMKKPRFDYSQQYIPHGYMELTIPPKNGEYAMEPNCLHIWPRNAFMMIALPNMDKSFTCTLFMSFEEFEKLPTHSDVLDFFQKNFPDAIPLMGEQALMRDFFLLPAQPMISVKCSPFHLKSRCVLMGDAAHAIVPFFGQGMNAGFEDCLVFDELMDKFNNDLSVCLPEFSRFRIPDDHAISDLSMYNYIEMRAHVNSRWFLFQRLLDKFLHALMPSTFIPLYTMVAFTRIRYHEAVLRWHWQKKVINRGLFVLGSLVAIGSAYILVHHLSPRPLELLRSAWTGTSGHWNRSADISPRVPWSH
Kynurenine 3-monooxygenase (Rattus norvegicus), sequence (O88867 whole entry, looked up): as the sequence (O88867 whole entry) above

| inhibition [5] | IC50 [6] | IC50 [7] | SMILES | also measured |
| --- | --- | --- | --- | --- |
| 43% |  |  | CC(O)(CC(=O)c1ccc(Cl)c(Cl)c1)C(=O)O (centres undefined) |  |
|  | 1200 nM | 440 nM | O=C(O)C(=O)/C=C(\O)c1ccc(F)c(F)c1 |  |
|  | 11300 nM | 2200 nM | C/C(=C\C(=O)c1ccc(Cl)c(Cl)c1)C(=O)O |  |
|  | 6400 nM | 950 nM | O=C(O)C(=O)/C=C(\O)c1ccc(Cl)c(Cl)c1 |  |

The next lines start with the compound.

| SMILES | inhibition [5] | IC50 [6] | IC50 [7] | also measured |
| --- | --- | --- | --- | --- |
| O=C(CC(Cc1ccccc1)C(=O)O)c1ccc(Cl)c(Cl)c1 (centres undefined) |  |  |  | inhibition [1]: 8%; inhibition [2]: 0%; inhibition at 100 µM (FMO [3]): 16%; inhibition (Pseudomonas fluorescens [4]): 8% |
| O=C(CC1(C(=O)O)CC1)c1ccc(Cl)c(Cl)c1 | 20% |  |  |  |
| O=C(CC(C(=O)O)c1ccccc1)c1ccc(Cl)c(Cl)c1 (centres undefined) |  | 19500 nM |  |  |
| NCCC(=O)c1ccc(Cl)c(Cl)c1 | 2% |  |  |  |
| COc1ccc(C(=O)CC(O)C(=O)O)cc1 (centres undefined) | 7% |  |  |  |
| O=C(CC(O)C(=O)O)c1cccc(Cl)c1 (centres undefined) |  | 1100 nM | 480 nM |  |
| NC(CC(=O)c1ccc(Cl)c(Cl)c1)C(=O)O (centres undefined) |  |  |  | IC50 [8]: 330 nM; inhibition [9]: 10%; inhibition at 100 µM (FMO [10]): 8.5%; inhibition [11]: 14%; inhibition (Pseudomonas fluorescens [12]): 2% |
| CC(C)(CC(=O)c1ccc(Cl)c(Cl)c1)C(=O)O | 21% |  |  |  |
| CC(N)(CC(=O)c1ccc(Cl)c(Cl)c1)C(=O)O (centres undefined) | 35% |  |  |  |
| O=C(CC(O)C(=O)O)c1ccc(Cl)c(Cl)c1 (centres undefined) |  |  |  | inhibition [2]: 0%; inhibition (Pseudomonas fluorescens [4]): 29%; inhibition [13]: 23% |
| O=C(CC(Cl)C(=O)O)c1ccc(Cl)c(Cl)c1 (centres undefined) |  | 14800 nM | 2200 nM |  |
